Measured values as given in ChEMBL document CHEMBL1147597, “Synthesis and biological evaluations of novel benzimidazoles as potential antibacterial agents” (Bioorg Med Chem Lett, 2004).
In brackets after ≈: the same amount, converted by molar mass. One block for each compound: values may come before it.

Assays:
Klebsiella pneumoniae [1] = experiment: Minimal inhibitory concentration against gram negative Klebsiella pneumoniae 13383 strain (Range is 25-50 uM); type: functional
Pseudomonas aeruginosa [2] = experiment: Minimal inhibitory concentration against gram negative Pseudomonas aeruginosa 25416 strain (Range is 6-12 uM); type: functional
Enterococcus hirae [3] = experiment: Minimal inhibitory concentration against gram positive Enterococcus hirae 29212 strain (Range is 0.75-1.5 uM); type: functional
Escherichia coli [4] = experiment: Minimal inhibitory concentration against gram negative Escherichia coli 25922 strain (Range is 12-26 uM); type: functional; settings: ATCC25922
Streptococcus pyogenes [5] = experiment: Minimal inhibitory concentration against gram positive Streptococcus pyogenes 49399 strain (Range is 25-50 uM); type: functional
Staphylococcus aureus [6] = experiment: Minimal inhibitory concentration against Staphylococcus aureus (Range is 12-25 uM); type: functional
Staphylococcus aureus [7] = experiment: Minimal inhibitory concentration against gram positive Staphylococcus aureus 13709 strain (Range is 3-7 uM); type: functional
Streptococcus pneumoniae [8] = experiment: Minimal inhibitory concentration against gram positive Streptococcus pneumoniae 6303 strain (Range is 6-12 uM); type: functional
Bacteria = experiment: Inhibitory activity against bacteria in the transcription/translation assay; type: functional, organism-based
Proteus vulgaris [9] = experiment: Minimal inhibitory concentration against gram negative Proteus vulgaris 8427 strain (Range is 25-50 uM); type: functional
Escherichia coli [10] = experiment: Minimal inhibitory concentration against Escherichia coli (Range is 12-25 uM); type: functional
Enterococcus hirae [11] = experiment: Minimal inhibitory concentration against gram positive Enterococcus hirae 29212 strain (Range is 25-50 uM); type: functional
Escherichia coli [12] = experiment: Minimal inhibitory concentration against gram negative Escherichia coli 25922 strain; type: functional; settings: ATCC25922
Pseudomonas aeruginosa [13] = experiment: Minimal inhibitory concentration against gram negative Pseudomonas aeruginosa 25416 strain; type: functional
Klebsiella pneumoniae [14] = experiment: Minimal inhibitory concentration against gram negative Klebsiella pneumoniae 13383 strain (Range is 50-100 uM); type: functional
Staphylococcus aureus [15] = experiment: Minimal inhibitory concentration against Staphylococcus aureus (Range is 6-12 uM); type: functional
Proteus vulgaris [16] = experiment: Minimal inhibitory concentration against gram negative Proteus vulgaris 8427 strain; type: functional
Escherichia coli [17] = experiment: Minimal inhibitory concentration against Escherichia coli; type: functional
Staphylococcus aureus [18] = experiment: Minimal inhibitory concentration against gram positive Staphylococcus aureus 13709 strain (Range is 6-12 uM); type: functional
Enterococcus hirae [19] = experiment: Minimal inhibitory concentration against gram positive Enterococcus hirae 29212 strain (Range is 3-6 uM); type: functional
Klebsiella pneumoniae [20] = experiment: Minimal inhibitory concentration against gram negative Klebsiella pneumoniae 13383 strain (Range is 6-12 uM); type: functional
Streptococcus pneumoniae [21] = experiment: Minimal inhibitory concentration against gram positive Streptococcus pneumoniae 6303 strain (Range is 12-25 uM); type: functional
Pseudomonas aeruginosa [22] = experiment: Minimal inhibitory concentration against gram negative Pseudomonas aeruginosa 25416 strain (Range is 25-50 uM); type: functional
Escherichia coli [23] = experiment: Minimal inhibitory concentration against gram negative Escherichia coli 25922 strain (Range is 12-25 uM); type: functional; settings: ATCC25922
Streptococcus pyogenes [24] = experiment: Minimal inhibitory concentration against gram positive Streptococcus pyogenes 49399 strain (Range is 6-12 uM); type: functional
Enterococcus hirae [25] = experiment: Minimal inhibitory concentration against gram positive Enterococcus hirae 29212 strain (Range is 1-3 uM); type: functional
Pseudomonas aeruginosa [26] = experiment: Minimal inhibitory concentration against gram negative Pseudomonas aeruginosa 25416 strain (Range is 12-25 uM); type: functional
Staphylococcus aureus [27] = experiment: Minimal inhibitory concentration against Staphylococcus aureus (Range is 3-6 uM); type: functional
Staphylococcus aureus [28] = experiment: Minimal inhibitory concentration against gram positive Staphylococcus aureus 13709 strain (Range is 3-6 uM); type: functional
Escherichia coli [29] = experiment: Minimal inhibitory concentration against gram negative Escherichia coli 25922 strain (Range is 6-12 uM); type: functional; settings: ATCC25922
Escherichia coli [30] = experiment: Minimal inhibitory concentration against Escherichia coli (Range is 6-12 uM); type: functional
Streptococcus pyogenes [31] = experiment: Minimal inhibitory concentration against gram positive Streptococcus pyogenes 49399 strain (Range is 3-6 uM); type: functional

MIC (Klebsiella pneumoniae [1]): 50 µM (≈ 30.4 µg/mL) | MIC (Pseudomonas aeruginosa [2]): 12 µM (≈ 7.3 µg/mL) | MIC (Enterococcus hirae [3]): 1.5 µM (≈ 0.913 µg/mL) | MIC (Escherichia coli [4]): 26 µM (≈ 15.8 µg/mL) | MIC (Streptococcus pyogenes [5]): 50 µM (≈ 30.4 µg/mL) | MIC (Staphylococcus aureus [6]): 25 µM (≈ 15.2 µg/mL) | MIC (Staphylococcus aureus [7]): 7 µM (≈ 4.26 µg/mL) | MIC (Streptococcus pneumoniae [8]): 12 µM (≈ 7.3 µg/mL) | IC50 (Bacteria): 35 µM | MIC (Proteus vulgaris [9]): 50 µM (≈ 30.4 µg/mL) | MIC (Escherichia coli [10]): 25 µM (≈ 15.2 µg/mL)
SMILES: Clc1cc2nc(C3CCNCC3)n(CCCCCn3c(C4CCNCC4)nc4cc(Cl)c(Cl)cc43)c2cc1Cl

MIC (Enterococcus hirae [11]): 50 µM (≈ 21.8 µg/mL) | MIC (Escherichia coli [12]): > 100 µM | MIC (Streptococcus pyogenes [5]): 50 µM (≈ 21.8 µg/mL) | MIC (Pseudomonas aeruginosa [13]): > 100 µM | MIC (Klebsiella pneumoniae [14]): 100 µM (≈ 43.5 µg/mL) | MIC (Staphylococcus aureus [15]): 12 µM (≈ 5.22 µg/mL) | MIC (Proteus vulgaris [16]): > 100 µM | MIC (Streptococcus pneumoniae [8]): 12 µM (≈ 5.22 µg/mL) | IC50 (Bacteria): > 100 µM | MIC (Escherichia coli [17]): > 100 µM | MIC (Staphylococcus aureus [18]): 12 µM (≈ 5.22 µg/mL)
SMILES: O=C1C=CC(=O)N1CCCCCn1c(C2CCNCC2)nc2cc(Cl)c(Cl)cc21

MIC (Enterococcus hirae [19]): 6 µM (≈ 3.07 µg/mL) | MIC (Klebsiella pneumoniae [20]): 12 µM (≈ 6.14 µg/mL) | MIC (Streptococcus pneumoniae [21]): 25 µM (≈ 12.8 µg/mL) | MIC (Pseudomonas aeruginosa [22]): 50 µM (≈ 25.6 µg/mL) | MIC (Escherichia coli [23]): 25 µM (≈ 12.8 µg/mL) | MIC (Staphylococcus aureus [15]): 12 µM (≈ 6.14 µg/mL) | IC50 (Bacteria): > 100 µM | MIC (Proteus vulgaris [9]): 50 µM (≈ 25.6 µg/mL) | MIC (Streptococcus pyogenes [24]): 12 µM (≈ 6.14 µg/mL) | MIC (Staphylococcus aureus [18]): 12 µM (≈ 6.14 µg/mL) | MIC (Escherichia coli [10]): 25 µM (≈ 12.8 µg/mL)
SMILES: O=C(Cn1c(C2CCNCC2)nc2cc(Cl)c(Cl)cc21)NNC(=O)Nc1ccc2ccccc2c1

MIC (Klebsiella pneumoniae [20]): 12 µM (≈ 7.71 µg/mL) | MIC (Enterococcus hirae [25]): 3 µM (≈ 1.93 µg/mL) | MIC (Pseudomonas aeruginosa [26]): 25 µM (≈ 16.1 µg/mL) | MIC (Staphylococcus aureus [27]): 6 µM (≈ 3.85 µg/mL) | MIC (Staphylococcus aureus [28]): 6 µM (≈ 3.85 µg/mL) | MIC (Escherichia coli [29]): 12 µM (≈ 7.71 µg/mL) | MIC (Streptococcus pneumoniae [8]): 12 µM (≈ 7.71 µg/mL) | MIC (Escherichia coli [30]): 12 µM (≈ 7.71 µg/mL) | MIC (Streptococcus pyogenes [31]): 6 µM (≈ 3.85 µg/mL) | IC50 (Bacteria): > 100 µM
SMILES: Clc1cc2nc(C3CCNCC3)n(Cc3ccc(Cn4c(C5CCNCC5)nc5cc(Cl)c(Cl)cc54)cc3)c2cc1Cl
